Data from PubChem BioAssay AID1259407 (Chemical Carcinogenesis Research Information System (CCRIS), 2018).
Activity calls are given as the source filed them. The rule behind the calls is not given here.

Tested on: CCRIS mutagenicity, Ames/micronucleus/aberration tests
Test: CCRIS mutagenicity studies
[1] = Test System: AMES SALMONELLA TYPHIMURIUM, Strain/Indicator: TA100, Metabolic Activation: NONE, Method: PREINCUBATION
[2] = Test System: AMES SALMONELLA TYPHIMURIUM, Strain/Indicator: TA98, Metabolic Activation: NONE, Method: PREINCUBATION

Structure (SMILES)	mutagenic call (End Point: In vitro chromosomal aberrations, Test System: Chinese hamster lung (CHL/IU) cells, Metabolic Activation: Rat, Liver, S9, Phenobarbital and 5,6-benzoflavone)	mutagenic call (Test System: AMES SALMONELLA TYPHIMURIUM, Strain/Indicator: TA98, Metabolic Activation: RAT, LIVER, S-9, PHENOBARBITAL AND BETA-NAPHTHOFLAVONE, Method: PREINCUBATION)	mutagenic call [1]	mutagenic call (Test System: AMES SALMONELLA TYPHIMURIUM, Strain/Indicator: TA100, Metabolic Activation: RAT, LIVER, S-9, PHENOBARBITAL AND BETA-NAPHTHOFLAVONE, Method: PREINCUBATION)	mutagenic call (Test System: AMES SALMONELLA TYPHIMURIUM, Strain/Indicator: TA1535, Metabolic Activation: NONE, Method: PREINCUBATION)	mutagenic call (Test System: AMES SALMONELLA TYPHIMURIUM, Strain/Indicator: TA1535, Metabolic Activation: RAT, LIVER, S-9, PHENOBARBITAL AND BETA-NAPHTHOFLAVONE, Method: PREINCUBATION)	mutagenic call (Test System: AMES SALMONELLA TYPHIMURIUM, Strain/Indicator: TA1537, Metabolic Activation: NONE, Method: PREINCUBATION)	mutagenic call (Test System: AMES SALMONELLA TYPHIMURIUM, Strain/Indicator: TA1537, Metabolic Activation: RAT, LIVER, S-9, PHENOBARBITAL AND BETA-NAPHTHOFLAVONE, Method: PREINCUBATION)	mutagenic call (Test System: AMES SALMONELLA TYPHIMURIUM, Strain/Indicator: TA1537, Metabolic Activation: RAT, LIVER, S-9, SODIUM PHENOBARBITAL AND 5,6-BENZOFLAVONE, Method: PREINCUBATION)	mutagenic call (Test System: E. COLI, Strain/Indicator: WP2UVRA, Metabolic Activation: NONE, Method: PREINCUBATION)	mutagenic call (Test System: E. COLI, Strain/Indicator: WP2UVRA, Metabolic Activation: RAT, LIVER, S-9, PHENOBARBITAL AND BETA-NAPHTHOFLAVONE, Method: PREINCUBATION)	mutagenic call (Test System: AMES SALMONELLA TYPHIMURIUM, Strain/Indicator: TA97, Metabolic Activation: NONE, Method: PREINCUBATION)	mutagenic call (Test System: AMES SALMONELLA TYPHIMURIUM, Strain/Indicator: TA97, Metabolic Activation: S-9 (10%), Method: PREINCUBATION)	mutagenic call [2]	mutagenic call (Test System: AMES SALMONELLA TYPHIMURIUM, Strain/Indicator: TA98, Metabolic Activation: S-9 (10%), Method: PREINCUBATION)	mutagenic call (Test System: AMES SALMONELLA TYPHIMURIUM, Strain/Indicator: TA100, Metabolic Activation: S-9 (10%), Method: PREINCUBATION)	mutagenic call (Test System: AMES SALMONELLA TYPHIMURIUM, Strain/Indicator: TA102, Metabolic Activation: NONE, Method: PREINCUBATION)	mutagenic call (Test System: AMES SALMONELLA TYPHIMURIUM, Strain/Indicator: TA102, Metabolic Activation: S-9 (10%), Method: PREINCUBATION)
Nc1ccccc1S	active; positive (structural changes and ploidy).	inactive; negative	inactive; negative	inactive; negative	inactive; negative	inactive; negative	inactive; negative	inactive; negative	inactive; negative	inactive; negative	inactive; negative							
Nc1c(C(=O)N/N=C/c2ccccc2)[nH]c2ccccc12			inactive; negative									inactive; negative	inactive; negative	inactive; negative	inactive; negative	inactive; negative	inactive; negative	inactive; negative
CCNC(=O)/C=C/c1ccc([N+](=O)[O-])o1														active; positive				
